# Laboratory results taken from patent US20190255023A1, “COMBINATION THERAPY COMPRISING A THIAZOLE AND A CORTICOSTEROID TO TREAT SKIN CONDITIONS” (priority 2016, published 2019).
# System: immortalized keratinocyte cell line HaCaT
# Assay: Resazurin assay, HaCaT cell viability / proliferation
# Type: cell-based, human
# Settings: for suboptimal dose of reduced viability: single agent dose response, HaCaT, 24 hours (FIG. 1)
# Description: The spontaneously immortalized, nontumorigenic skin keratinocyte cell line HaCaT was maintained in DMEM supplemented with 5% (v/v) FBS, 0.3 mg/ml glutamine and 0.1 mg/ml gentamicin at 37° C. with 5% CO2 in a humidified atmosphere. Subculture using trypsin-EDTA was performed every 3-4 days with split ratio of 1:3-1:4 to ensure actively proliferating cells.
# Cells were seeded in 96 well plates in fully supplemented medium at a density of 3000 cells per well. […] Next day, the cells were treated with cPLA2α inhibitor Compound B, Compound A, vitamin D analogue Calcipotriol and corticosteroid hormone receptor agonist Betamethasone dipropionate for 24 hours. Resazurin was added next day according to the manufacturer's instruction (RnD Systems, UK) and left to incubate for […] in incubator at 37° C. with 5% CO2 in a humidified atmosphere before fluorescence was read at 544 nm excitation and 590 nm emission wavelength. The cells were observed under the microscope to evaluate possible morphology changes and signs of stress before addition of resazurin. The experiments were performed in series of 8 wells per treatment and repeated 3 times.
Structure (SMILES),"concentration up to which Hacat keratinocytes show resistance (single agent dose response (FIG. 1c), little effect seen attributed to solvent DMSO)",suboptimal dose of reduced viability [µM]
C[C@H]1C[C@H]2[C@@H]3CCC4=CC(=O)C=C[C@]4(C)[C@@]3(F)[C@@H](O)C[C@]2(C)[C@@]1(O)C(=O)CO [Betamethasone],up to 200 μM,50
CCCCCCCOc1ccc(OCC(=O)c2nc(C(=O)OC)cs2)cc1 [Compound A1],–,10
